Measurements reported in patent publication US10597388B2, “Pyridazinone herbicides” (FMC CORPORATION, priority 2014, dated 2020).

How the values were obtained:
Format in all cases: in vivo
corn (Zea mays) = assay: Test A greenhouse herbicide test, pre- and postemergence; conditions: Postemergence
Outline: (§1)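 Visual injury ratings, 0 (no effect) to 100 (complete control), versus untreated plants after roughly 10 d in a greenhouse. Compounds, formulated in a surfactant-containing non-phytotoxic solvent, were sprayed on loam–sand soil after sowing (pre) or on one- to two-leaf plants 2–10 cm tall (post).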

[1] = tested on: ragweed (common ragweed, Ambrosia elatior); assay: as above
Outline: as §1

[2] = tested on: barnyardgrass (Echinochloa crus-galli); assay: as above
Outline: as §1

[3] = tested on: pigweed (Amaranthus retroflexus); assay: as above
Outline: as §1

[4] = tested on: foxtail, giant (giant foxtail, Setaria faberii); assay: as above
Outline: as §1

[5] = tested on: wheat (Triticum aestivum); assay: as above; conditions: Postemergence
Outline: as §1

[6] = tested on: ryegrass, Italian (Italian ryegrass, Lolium multiflorum); assay: as above
Outline: as §1

kochia (Kochia scoparia) = assay: as above
Outline: as §1

[7] = tested on: blackgrass (Alopecurus myosuroides); assay: Test A greenhouse herbicide test, postemergence
Outline: (§2)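 Seedlings in a loam soil and sand mix received formulated compound postemergence at the one- to two-leaf stage. Greenhouse holding lasts approximately 10 d, then injury is scored visually relative to untreated plants, 0 meaning no effect and 100 complete control.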

[8] = tested on: galium (catchweed bedstraw, Galium aparine); assay: Test A greenhouse herbicide test, postemergence
Outline: as §2

[9] = tested on: ducksalad (Heteranthera limosa); assay: Test B flooded paddy test; conditions: 250 g ai/ha, Flood; visual rating on scale of 0 to 100 where 0 is no effect and 100 is complete control; 13 to 15 d after treatment
Outline: (§3)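 Ratings use a 0-100 visual scale, where 100 is complete control, and compare treated plants with controls after 13 to 15 d of greenhouse growth. Compound went straight into paddy water kept 3 cm over the soil surface, applied to seedlings at the 2-leaf stage.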

rice (Oryza sativa) = assay: Test B flooded paddy test; conditions: 250 g ai/ha, Flood; visual rating on scale of 0 to 100 where 0 is no effect and 100 is complete control; 13 to 15 d after treatment
Outline: as §3

[10] = tested on: barnyardgrass (Echinochloa crus-galli); assay: Test B flooded paddy test; conditions: 250 g ai/ha, Flood; visual rating on scale of 0 to 100 where 0 is no effect and 100 is complete control; 13 to 15 d after treatment
Outline: as §3

[11] = tested on: sedge, umbrella (small-flower umbrella sedge, Cyperus difformis); assay: Test B flooded paddy test; conditions: 250 g ai/ha, Flood; visual rating on scale of 0 to 100 where 0 is no effect and 100 is complete control; 13 to 15 d after treatment
Outline: as §3

[12] = 125 g ai/ha, 0 to 100 scale, 0 no effect, 100 complete control
[13] = 500 g ai/ha, visual rating after approx. 10 d, 0 to 100 scale (0 no effect, 100 complete control)
[14] = Postemergence, 125 g ai/ha, 0 to 100 scale, 0 no effect, 100 complete control
[15] = Postemergence, 500 g ai/ha, visual rating after approx. 10 d, 0 to 100 scale (0 no effect, 100 complete control)
[16] = Preemergence, 125 g ai/ha, visual injury rating, 0 to 100 scale (0 no effect, 100 complete control), approx. 10 d
[17] = Preemergence, 500 g ai/ha, 0 to 100 scale where 0 is no effect and 100 is complete control
[18] = 125 g ai/ha, 0 to 100 scale where 0 is no effect and 100 is complete control
[19] = Postemergence, 125 g ai/ha, 0 to 100 scale where 0 is no effect and 100 is complete control
[20] = Preemergence, 125 g ai/ha, 0 to 100 scale where 0 is no effect and 100 is complete control
[21] = 500 g ai/ha, 0 to 100 scale, 0 is no effect, 100 is complete control
[22] = Postemergence, 500 g ai/ha, 0 to 100 scale, 0 is no effect, 100 is complete control
[23] = Preemergence, 500 g ai/ha, 0 to 100 scale, 0 no effect, 100 complete control

CC(=O)Oc1c(C)nn(C)c(=O)c1-c1ccc(Cl)c2ccccc12 [Compound 157]
Plant response rating, Corn (corn (Zea mays); [12]): 0 | Plant response rating, Corn (corn (Zea mays); [13]): 40 | Plant response rating, Ragweed [1, 14]: 100 | Plant response rating, Ragweed [1, 15]: 100 | Plant response rating, Ragweed [1, 16]: 60 | Plant response rating, Ragweed [1, 17]: 90 | Plant response rating, Barnyardgrass [2, 14]: 50 | Plant response rating, Barnyardgrass [2, 15]: 80 | Plant response rating, Barnyardgrass [2, 16]: 70 | Plant response rating, Barnyardgrass [2, 17]: 90 | Plant response rating, Pigweed [3, 14]: 90 | Plant response rating, Pigweed [3, 15]: 100 | Plant response rating, Pigweed [3, 16]: 100 | Plant response rating, Pigweed [3, 17]: 100 | Plant response rating, Foxtail, Giant [4, 14]: 60 | Plant response rating, Foxtail, Giant [4, 15]: 80 | Plant response rating, Foxtail, Giant [4, 16]: 50 | Plant response rating, Foxtail, Giant [4, 17]: 80 | Plant response rating, Wheat [5, 12]: 0 | Plant response rating, Wheat [5, 13]: 50 | Plant response rating, Ryegrass, Italian [6, 14]: 100 | Plant response rating, Ryegrass, Italian [6, 15]: 100 | Plant response rating, Ryegrass, Italian [6, 16]: 100 | Plant response rating, Ryegrass, Italian [6, 17]: 100 | Plant response rating, Kochia (kochia (Kochia scoparia); [14]): 100 | Plant response rating, Kochia (kochia (Kochia scoparia); [15]): 100 | Plant response rating, Kochia (kochia (Kochia scoparia); [16]): 100 | Plant response rating, Kochia (kochia (Kochia scoparia); [17]): 100 | Plant response rating, Blackgrass [7, 12]: 60 | Plant response rating, Blackgrass [7, 13]: 70 | Plant response rating, Galium [8, 12]: 100 | Plant response rating, Galium [8, 13]: 100 | Plant response rating, Ducksalad [9]: 0 | Plant response rating, Rice (rice (Oryza sativa)): 0 | Plant response rating, Barnyardgrass [10]: 20 | Plant response rating, Sedge, Umbrella [11]: 75

CCOC(=O)Oc1c(C)nn(C)c(=O)c1-c1c(C(F)(F)F)ccc2ccccc12 [Compound 146]
Plant response rating, Corn (corn (Zea mays); [18]): 0 | Plant response rating, Corn (corn (Zea mays); [13]): 30 | Plant response rating, Ragweed [1, 19]: 90 | Plant response rating, Ragweed [1, 15]: 100 | Plant response rating, Ragweed [1, 17]: 80 | Plant response rating, Barnyardgrass [2, 19]: 0 | Plant response rating, Barnyardgrass [2, 15]: 30 | Barnyardgrass plant response rating [2, 20]: 0 | Plant response rating, Barnyardgrass [2, 17]: 50 | Plant response rating, Pigweed [3, 19]: 90 | Plant response rating, Pigweed [3, 15]: 90 | Pigweed plant response rating [3, 20]: 100 | Plant response rating, Pigweed [3, 17]: 100 | Plant response rating, Foxtail, Giant [4, 19]: 10 | Plant response rating, Foxtail, Giant [4, 15]: 70 | Foxtail, Giant plant response rating [4, 20]: 0 | Plant response rating, Foxtail, Giant [4, 17]: 50 | Plant response rating, Wheat [5, 18]: 0 | Plant response rating, Wheat [5, 13]: 70 | Plant response rating, Ryegrass, Italian [6, 19]: 70 | Plant response rating, Ryegrass, Italian [6, 15]: 100 | Plant response rating, Ryegrass, Italian [6, 17]: 80 | Plant response rating, Kochia (kochia (Kochia scoparia); [19]): 70 | Plant response rating, Kochia (kochia (Kochia scoparia); [15]): 100 | Kochia plant response rating (kochia (Kochia scoparia); [20]): 20 | Plant response rating, Kochia (kochia (Kochia scoparia); [17]): 70 | Plant response rating, Blackgrass [7, 18]: 20 | Plant response rating, Blackgrass [7, 13]: 70 | Plant response rating, Galium [8, 18]: 80 | Plant response rating, Galium [8, 13]: 90 | Plant response rating, Ducksalad [9]: 0 | Plant response rating, Rice (rice (Oryza sativa)): 0 | Plant response rating, Barnyardgrass [10]: 0 | Plant response rating, Sedge, Umbrella [11]: 0

CC(=O)Oc1c(C)nn(C)c(=O)c1-c1c(C)sc2cc(C)cc(C)c12 [Compound 44]
Plant response rating, Corn (corn (Zea mays); [18]): 0 | Corn plant response rating (corn (Zea mays); [21]): 0 | Plant response rating, Ragweed [1, 19]: 0 | Ragweed plant response rating [1, 22]: 0 | Ragweed plant response rating [1, 20]: 0 | Plant response rating, Ragweed [1, 23]: 10 | Plant response rating, Barnyardgrass [2, 19]: 0 | Barnyardgrass plant response rating [2, 22]: 0 | Barnyardgrass plant response rating [2, 20]: 0 | Plant response rating, Barnyardgrass [2, 23]: 0 | Plant response rating, Pigweed [3, 19]: 0 | Pigweed plant response rating [3, 22]: 0 | Pigweed plant response rating [3, 20]: 0 | Plant response rating, Pigweed [3, 23]: 0 | Plant response rating, Foxtail, Giant [4, 19]: 0 | Foxtail, Giant plant response rating [4, 22]: 0 | Foxtail, Giant plant response rating [4, 20]: 0 | Plant response rating, Foxtail, Giant [4, 23]: 0 | Plant response rating, Wheat [5, 18]: 0 | Wheat plant response rating [5, 21]: 0 | Plant response rating, Ryegrass, Italian [6, 19]: 0 | Ryegrass, Italian plant response rating [6, 22]: 0 | Ryegrass, Italian plant response rating [6, 20]: 0 | Plant response rating, Ryegrass, Italian [6, 23]: 0 | Plant response rating, Kochia (kochia (Kochia scoparia); [19]): 0 | Kochia plant response rating (kochia (Kochia scoparia); [22]): 0 | Kochia plant response rating (kochia (Kochia scoparia); [20]): 0 | Plant response rating, Kochia (kochia (Kochia scoparia); [23]): 0 | Plant response rating, Blackgrass [7, 18]: 0 | Blackgrass plant response rating [7, 21]: 0 | Plant response rating, Galium [8, 18]: 30 | Galium plant response rating [8, 21]: 70 | Plant response rating, Ducksalad [9]: 0 | Plant response rating, Rice (rice (Oryza sativa)): 0 | Plant response rating, Barnyardgrass [10]: 0 | Plant response rating, Sedge, Umbrella [11]: 0
